Entries after “also recorded” stand apart in the source; their conditions may differ. Read-outs that look alike come from different tables or passages of the source. Each block holds one molecule with its values, some of them ahead of it.
How the values were obtained:
Format in all cases: cell-based, human
A549 cells [1] = assay: DMR modulation of marker-induced responses (two-step assay) in A549 cells; conditions: for modulation of the pinacidil response in A549 cells: compound pretreatment ~1 hr (10 micromolar), then pinacidil 10 micromolar; for modulation of the forskolin response (P-DMR) in A549 cells / modulation of the histamine response (early and late P-DMR) in A549 cells: inhibitor 10 micromolar; for modulation of the forskolin response (P-DMR) in A549 cells: forskolin 16 micromolar; for modulation of the histamine response (early and late P-DMR) in A549 cells: histamine 10 micromolar
Description: (§1) The index was generated after normalizing each marker-induced DMR signal in the presence of the inhibitor to its corresponding signal in the absence of the inhibitor. The percentage of modulation for each marker by the inhibitor was plotted as a function of the marker. As shown from left to right in a sequential order, the DMR events used for the basis of the modulation percentage calculation are: the N-DMR (50 min after stimulation) for pinacidil in A549, the P-DMR (50 min after stimulation) for forskolin in A549, the early P-DMR event (˜10 min after histamine stimulation) and the late P-DMR event (˜30 min after histamine stimulation) for histamine in A549, and the early P-DMR event (˜5 min after EGF stimulation) and the subsequent N-DMR event (˜30 min after EGF stimulation) for EGF in A431 cells. In all cases, the amplitudes of respective DMR events were used as the basis to calculate the percentages of modulation by the PI3K inhibitors. The same procedure was used to generate FIGS. 8 to 14.
(§2) Cells were typically grown using ˜1 to 2×10^4 cells per well at passage 3 to 15 suspended in 50 μl of the corresponding culture medium in the biosensor microplate, and were cultured at 37° C. under air/5% CO2 for ˜1 day. Except for A431 which underwent one day culture followed by one starvation in serum free medium, all other cells were directly assayed without starvation. The confluency for all cells at the time of assays was ˜95% to 100%.
(§3) For biosensor cellular assays, molecule solutions were made by diluting the stored concentrated solutions with the HBSS (1× Hanks balanced salt solution, plus 20 mM Hepes, pH 7.1), and transferred into a 384 well polypropylene molecule storage plate to prepare a molecule source plate. Both molecule and marker source plates were made separately when a two-step assay was performed. In parallel, the cells were washed twice with the HBSS and maintained in 30 μl of the HBSS to prepare a cell assay plate. Both the cell assay plate and the molecule and marker source plate(s) were then incubated in the hotel of the reader system. After ˜1 hr of incubation the baseline wavelengths of all biosensors in the cell assay microplate were recorded and normalized to zero. Afterwards, a 2 to 10 minute continuous recording was carried out to establish a baseline, and to ensure that the cells reached a steady state. Cellular responses were then triggered by pipetting 10 μl of the marker solutions into the cell assay plate using the on-board liquid handler.
(§4) To study the influence of molecules on a marker-induced response, a second stimulation with the marker at a fixed dose (typically at EC80 or EC100) was applied. The resonant wavelengths of all biosensors in the microplate were normalized again to establish a second baseline, right before the second stimulation. The two stimulations were usually separated by ˜1 hr.
(§5) All studies were carried out at a controlled temperature (28° C.). At least two independent sets of experiments, each with at least three replicates, were performed.

A549 cells [2] = assay: Label-free RWG (Epic) biosensor DMR assay, agonism mode, A549 cells; conditions: for EC50: Homo sapiens; for maximal amplitude / maximal response of the N-DMR signal: n=4
Description: as §2
(§6) Epic® beta version wavelength interrogation system (Corning Inc., Corning, N.Y.) was used for whole cell sensing. This system consists of a temperature-control unit, an optical detection unit, and an on-board liquid handling unit with robotics. The detection unit is centered on integrated fiber optics, and enables kinetic measures of cellular responses with a time interval of ˜15 sec.
as §3, §5

HepG2 cells [3] = assay: Label-free RWG biosensor DMR assay, agonism mode, HepG2 cells; conditions: primary profile
Description: as §2, §6
For biosensor cellular assays, molecule solutions were made by diluting the stored concentrated solutions with the HBSS (1× Hanks balanced salt solution, plus 20 mM Hepes, pH 7.1), and transferred into a 384 well polypropylene molecule storage plate to prepare a molecule source plate. […] Both the cell assay plate and the molecule and marker source plate(s) were then incubated in the hotel of the reader system. After ˜1 hr of incubation the baseline wavelengths of all biosensors in the cell assay microplate were recorded and normalized to zero. […]

A549 and HepG2 cells = assay: Biosensor index against panel of cells/markers (A549 and HepG2), compared with Y-27632
From the text: It is well known that many kinas inhibitors often display polypharmacology (i.e., many kinase inhibitors can modulate the activity of multi-targets in a cell). In addition, drugs including kinase inhibitors often display cell- or tissue-dependent phenotypic pharmacology, due to the many cellular factors including post-transcriptional modifications, compartmentalization of signaling cascades, alteration of key gene products in the pathway, receptor oligomerization, and constitutive receptor activity. […] Thus, the primary modes of action of a drug or drug candidate molecule, including ROCK inhibitors, are a sum of at least several types of pharmacology—polypharmacology, phenotypic pharmacology and systems (integrative) pharmacology. To correctly detect the phenotypic pharmacology of a ROCK inhibitor that acts via the inhibition of ROCK activity in live cell, one needs a panel of cells as well as panels of markers using the biosensor cellular assays. Thus, a ROCK inhibitor responsive cell line, A549, and a ROCK inhibitor unresponsive cell line, HepG2, were chosen as model systems. […]

A431 cells = assay: DMR modulation of the EGF-induced response in quiescent A431 cells
Description: as §1, §2, §3, §4, §5

HepG2 cells [4] = assay: DMR modulation of the ODN2006-induced response in HepG2 cells; conditions: inhibitor 10 micromolar, ODN2006 500 nM
Description: as §2
as §3, with “Cellular responses were then triggered by pipetting 10 μl of the marker solutions into the cell assay plate using the on-board liquid handler.” left out

A549 and A431 cells = assay: DMR index against panels of markers across A549 and A431 cells, compared with LY294002; conditions: markers pinacidil, forskolin, histamine (A549), EGF (A431)
Description: as §1
Optical biosensors such as RWG biosensor measure dynamic mass redistribution (DMR) signals of cells upon stimulation. A DMR index contains the primary DMR profile or signal of a chemical acting on a panel of live cells, and the modulation index of the chemical against panels of markers across the panel of cells, a panel of markers for each cell line. […]

[5] = inhibitor 10 micromolar, EGF 32 nM
[6] = ~30 min after histamine stimulation

Molecule: O=S(=O)(c1cccc2cnccc12)N1CCCNCC1 [HA-1077]
- modulation of the pinacidil response in A549 cells (A549 cells [1]): complete or significant attenuation

Molecule: CC1CNCCN1S(=O)(=O)c1cccc2cnccc12 (stereo not drawn) [H-7]
- modulation of the pinacidil response in A549 cells (A549 cells [1]): complete or significant attenuation

Molecule: CDK1/2 inhibitor III
- DMR (biosensor) signal of the compound in A549 cells (A549 cells [2]; primary profile): negative DMR signal
- DMR (biosensor) signal of the compound in HepG2 cells (HepG2 cells [3]): small decaying signal
- modulation of the biosensor signals of the markers in the panel (A549 and HepG2 cells; pinacidil, poly(IC), PMA, SLIGKV-amide, forskolin, histamine (A549), ODN2006 (HepG2)): attenuated the biosensor signals of most of markers
- biosensor index compared with the Y-27632 biosensor index (A549 and HepG2 cells; primary profiles in A549 and HepG2 and modulation index against the panel of markers): quite distinct biosensor index

- EC50 (A549 cells [2]; stimulation with pinacidil, read-out: EC50 of the biosensor signal): ~5 µM
Molecule: CC(N/C(=N\C#N)Nc1ccncc1)C(C)(C)C (stereo not drawn) [pinacidil]

Molecule: CC(=O)c1ccc(N2CCOCC2)cc1O [DNA-PK inhibitor III, 1-(2-Hydroxy-4-morpholin-4-yl-phenyl)ethanone]
- modulation of the pinacidil response in A549 cells (A549 cells [1]): little or not modulation
- modulation of the forskolin response (P-DMR) in A549 cells (A549 cells [1]): significant potentiation
- modulation of the histamine response (early and late P-DMR) in A549 cells (A549 cells [1]): significant potentiation
- modulation of the P-DMR event of the EGF response in A431 cells (A431 cells; [5]): small attenuation

Molecule: O=S(=O)(NCCNC/C=C/c1ccc(Br)cc1)c1cccc2cnccc12 [H-89]
- modulation of the pinacidil response in A549 cells (A549 cells [1]): complete or significant attenuation

Molecule: Oc1ccc(C=Cc2cc(O)cc(O)c2)cc1 [resveratrol]
- modulation of the pinacidil response in A549 cells (A549 cells [1]): little or not modulation
- modulation of the forskolin response (P-DMR) in A549 cells (A549 cells [1]): significant potentiation
- modulation of the histamine response (early and late P-DMR) in A549 cells (A549 cells [1]): significant potentiation
- modulation of the P-DMR event of the EGF response in A431 cells (A431 cells; [5]): small attenuation

Molecule: NCCNS(=O)(=O)c1cccc2cnccc12 [H-9]
- modulation of the pinacidil response in A549 cells (A549 cells [1]): complete or significant attenuation

Molecule: Cc1cc(C(C)Nc2ccccc2)c2nc(N3CCOCC3)cc(=O)n2c1 (racemic) [PI3Kβ inhibitor II, (+/−)-7-Methyl-2-(morpholin-4-yl)-9-(1-phenylaminoethyl)-pyridol[1,2-a]-pyrimidin-4-one]
- modulation of the late P-DMR event of the histamine response in A549 cells (A549 cells [1]; [6]): slightly suppression
- modulation of the P-DMR event of the EGF response in A431 cells (A431 cells; [5]): significantly attenuated

Molecule: O=c1c(O)c(-c2ccc(O)c(O)c2)oc2cc(O)cc(O)c12 [quercetin]
- modulation of the pinacidil response in A549 cells (A549 cells [1]): little or not modulation
- modulation of the forskolin response (P-DMR) in A549 cells (A549 cells [1]): potentiated; also recorded: significant potentiation
- modulation of the histamine response (early and late P-DMR) in A549 cells (A549 cells [1]): potentiated; also recorded: significant potentiation
- modulation index score, forskolin (A549 cells [1]; score +1 per 10% modulation): 2
- modulation index score, histamine early P-DMR (A549 cells [1]; score +1 per 10% modulation): 4
- modulation index score, histamine late P-DMR (A549 cells [1]; score +1 per 10% modulation): 9
- modulation index score, pinacidil (A549 cells [1]; score +1 per 10% positive modulation, opposite for negative): −1
- modulation of the N-DMR event of the EGF response in A431 cells (A431 cells; [5]): attenuated
- modulation of the P-DMR event of the EGF response in A431 cells (A431 cells; [5]): small attenuation
- modulation index score, EGF N-DMR (A431 cells; score +1 per 10% modulation): −5
- modulation index score, EGF P-DMR (A431 cells; score +1 per 10% modulation): 0
- modulation of the ODN2006 DMR signal in HepG2 cells (HepG2 cells [4]): slightly attenuated

Molecule: Oc1cccc(-c2nc(N3CCOCC3)c3oc4ncccc4c3n2)c1 [PI-103]
- modulation of the pinacidil response in A549 cells (A549 cells [1]): little or not modulation
- modulation of the forskolin response (P-DMR) in A549 cells (A549 cells [1]): significant potentiation
- modulation of the histamine response (early and late P-DMR) in A549 cells (A549 cells [1]): significant potentiation
- modulation of the P-DMR event of the EGF response in A431 cells (A431 cells; [5]): small attenuation

Molecule: O=c1cc(N2CCNCC2)oc2c(-c3ccccc3)cccc12 [LY303511]
- type of DMR index compared with the PI3K inhibitor LY294002 (A549 and A431 cells): completely distinct type of DMR index

Molecule: O=C1NC(=O)C(=Cc2ccc3nccnc3c2)S1 [PI3Kγ inhibitor, 5-quinoxalin-6-ylmethylene-thiazolindine-2,4-dione]
- modulation of the pinacidil response in A549 cells (A549 cells [1]): little or not modulation
- modulation of the forskolin response (P-DMR) in A549 cells (A549 cells [1]): significant potentiation
- modulation of the histamine response (early and late P-DMR) in A549 cells (A549 cells [1]): significant potentiation
- modulation of the late P-DMR event of the histamine response in A549 cells (A549 cells [1]; [6]): moderate potentiation
- modulation of the P-DMR event of the EGF response in A431 cells (A431 cells; [5]): small attenuation

- EC50 (A549 cells [2]; 50 min, N-DMR amplitudes ~50 min after stimulation, n=4, read-out: EC50 of the N-DMR signal): 14.7 ± 1.5 µM
Molecule: O=c1cc(N2CCOCC2)oc2c(-c3ccccc3)cccc12 [LY294002]
- maximal amplitude / maximal response of the N-DMR signal (A549 cells [2]): ~400 picometers
- modulation of the pinacidil response (N-DMR) (A549 cells [1]; N-DMR 50 min after stimulation, marker signal with inhibitor normalized to signal without, FIG. 7C): −9%
- modulation of the forskolin response (P-DMR) (A549 cells [1]; P-DMR 50 min after stimulation, FIG. 7C): +33%
- modulation of the histamine response, early P-DMR (A549 cells [1]; ~10 min after histamine stimulation, FIG. 7C): +41%
- modulation of the histamine response, late P-DMR (A549 cells [1]; ~30 min after histamine stimulation, FIG. 7C): +90%

Molecule: CNCCNS(=O)(=O)c1cccc2cnccc12 [H-8]
- modulation of the pinacidil response in A549 cells (A549 cells [1]): complete or significant attenuation

Molecule: c1ccc2c(-c3ccncc3)c[nH]c2c1 [Rho kinase inhibitor III Rockout]
- modulation of the pinacidil response in A549 cells (A549 cells [1]): complete or significant attenuation

Molecule: NC(N)=NCCNS(=O)(=O)c1cccc2cnccc12 [HA-1004]
- modulation of the pinacidil response in A549 cells (A549 cells [1]): complete or significant attenuation

Molecule: COC[C@H]1OC(=O)c2coc3c2[C@@]1(C)C1=C(C3=O)[C@@H]2CCC(=O)[C@@]2(C)C[C@H]1OC(C)=O [wortmannin]
- EC50 (A549 cells [2]; 50 min, N-DMR amplitudes ~50 min after stimulation, n=4, read-out: EC50 of the DMR signal): 0.0727 ± 0.0034 µM
- maximal amplitude / maximal response of the N-DMR signal (A549 cells [2]): ~700 picometers

Molecule: Rho kinase inhibitor IV
- modulation of the pinacidil response in A549 cells (A549 cells [1]): complete or significant attenuation

Molecule: O=c1cc(N2CCOCC2)oc2c1ccc1ccccc12 [DNA-PK inhibitor II, 2-(Morpholin-4-yl)-benzo[h]chromen-4-one]
- modulation of the pinacidil response in A549 cells (A549 cells [1]): little or not modulation
- modulation of the forskolin response (P-DMR) in A549 cells (A549 cells [1]): significant potentiation
- modulation of the histamine response (early and late P-DMR) in A549 cells (A549 cells [1]): significant potentiation
- modulation of the P-DMR event of the EGF response in A431 cells (A431 cells; [5]): small attenuation

Reference: US20120289432A1, “PI3K MODULATORS, RHO KINASE MODULATORS AND METHODS OF IDENTIFYING AND USING SAME” (Corning Incorporated, priority 2009, published 2012)
